We go through 36 compounds from patent publication US9714243B2, “4-pyridinonetriazine derivatives as HIV integrase inhibitors” (Merck Sharp & Dohme Corp., priority 2012, dated 2017).

In the experiment the test system is HIV-1 (NL4-3 strain). The experiment can be described thus: Assay for inhibition of HIV replication (ViKinG; infected MT4-GFP cells). The class given is cell-based. As for the experimental part: Assay for inhibition of HIV replication
MT4-GFP cells (250,000 cells/ml) were bulk-infected with HIV-1 (NL4-3 strain) at low multiplicity of infection (MOI) in RPMI+10% FBS for 24 hours. […] Test compounds were serial-diluted in DMSO on ECHO. The infected MT4-GFP cells were added to a 384-well poly-D-lysine coated black plate with clear bottom in which the diluted test compounds were placed. The cells were seeded at 8,000 cells per well and the final DMSO concentration was 0.4%. The infected cells (Green GFP cells) were quantified at both 24 and 48 hours post incubation using Acumen eX3. Viral reproductive ratio (R0) was determined using the number of infected cells at 48 hours divided by the number of infected cells at 24 hours. Percent viral growth inhibition was calculated by [1−(R−Rtripledrug)/(RDMSO−Rtripledrug)]*100. Compound potency IP or IC50 was determined by a 4-parameter dose response curve analysis.

The mark [1] stands for this setting: MT4-GFP cells infected with HIV-1 NL4-3, 0% normal human serum (NHS), read-out: ViKinG IP (nM) with 0% NHS.
The mark [2] stands for this setting: MT4-GFP cells infected with HIV-1 NL4-3, 10% normal human serum (NHS), read-out: ViKinG IP (nM) with 10% NHS.
[3] abbreviates: MT4-GFP cells infected with HIV-1 NL4-3, 100% normal human serum (NHS), read-out: ViKinG IP (nM) with 100% NHS.
The mark [4] stands for this setting: Human immunodeficiency virus 1, NL43, MT4-GFP cells infected with HIV-1 NL4-3, 0% normal human serum (NHS), read-out: ViKinG IP (nM) with 0% NHS.
Where [5] appears, read: Human immunodeficiency virus 1, NL43, MT4-GFP cells infected with HIV-1 NL4-3, 10% normal human serum (NHS), read-out: ViKinG IP (nM) with 10% NHS.
Setting [6] is: Human immunodeficiency virus 1, NL43, MT4-GFP cells infected with HIV-1 NL4-3, 100% normal human serum (NHS), read-out: ViKinG IP (nM) with 100% NHS.

The structures appear in SMILES notation. Read-outs that look alike come from different tables or passages of the source.

Turning to `CN1C(=O)c2c(O)c(=O)c(-c3nnc(Cc4ccc(F)cc4F)s3)cn2N(C)C12CCC(C)(CO)CC2` (stereo not shown) [Compound 86], the IC50 is 6.34 nM under setting [1], 94.3 nM under setting [2] and 185 nM under setting [3].
Regarding `CCN1C(=O)c2c(O)c(=O)c(-c3nnc(Cc4ccc(F)cc4F)s3)cn2N(C)C12CCCC(=O)C2` (racemic) [Compound 43], the IC50 was 40.7 nM under setting [4] and 275 nM under setting [5].
With `CCN1C(=O)c2c(O)c(=O)c(-c3nnc(Cc4ccc(F)cc4F)s3)cn2N(C)C12CCC(C)(OC)CC2` (stereo not shown) [Compound 59], the IC50 by setting is: under setting [4], 8.66 nM; under setting [6], 124 nM.
With `CN1C(=O)c2c(O)c(=O)c(-c3nnc(Cc4ccc(F)cc4F)s3)cn2N(C)C12CCC(C(=O)NCc1cn(C)cn1)CC2` (stereo not shown) [Compound 131], the IC50 under setting [1] was found to be 459 nM and the IC50 under setting [2] worked out at 642 nM.
With `COCCN1C(=O)c2c(O)c(=O)c(C(=O)NCc3ccc(F)cc3)cn2[C@@H](C)C12CC2` [Compound 184], the IC50 is 2.66 nM under setting [4] and 178 nM under setting [6].
As for `CN1C(=O)c2c(O)c(=O)c(C(=O)NCc3ccc(F)cc3F)cn2CC12CC2` [Compound 174], the IC50 came out at 2.87 nM under setting [4] and 125 nM under setting [6].
Take `CCN1C(=O)c2c(O)c(=O)c(-c3nnc(Cc4ccc(F)cc4F)s3)cn2N(C)C12CC[C@@H](C(=O)OC)[C@H](C)C2` (stereo partly shown) [Compound 33]: the IC50 under setting [2] is 29 nM.
For the compound `CCN1C(=O)c2c(O)c(=O)c(-c3nnc(Cc4ccc(F)cc4)s3)cn2N(C)C1(C)COC` (racemic) [Compound 223], the IC50 under setting [6] was 369 nM.
As to `CCc1noc(C2CCC3(CC2)N(CC)C(=O)c2c(O)c(=O)c(-c4nnc(Cc5ccc(F)cc5F)s4)cn2N3C)n1` (stereo not shown) [Compound 58], the IC50 under setting [1] is 14.1 nM and the IC50 under setting [3] turned out to be 228 nM.
Take `CCN1C(=O)c2c(O)c(=O)c(-c3nnc(Cc4ccc(F)cc4F)s3)cn2N(C)C12CC[C@@H]1C[C@@H]12` (stereo partly shown) [Compound 39]: the IC50 was found to be 0.213 nM under setting [4] and 77.7 nM under setting [5].
`CN1C(=O)c2c(O)c(=O)c(-c3nnc(Cc4ccc(F)cc4F)s3)cn2N(C)C12CCC(C(=O)NCC(F)(F)F)CC2` (stereo not shown) [Compound 112]: the IC50 is 3.36 nM under setting [1] and 11.1 nM under setting [2].
With `CN1n2cc(-c3nnc(Cc4ccc(F)cc4F)s3)c(=O)c(O)c2C(=O)N2CCCC21CO` (racemic) [Compound 163], the IC50 worked out at 8.22 nM under setting [4] and 499 nM under setting [6].
As for `CN(C)C(=O)C1CCC2(CC1)N(C)C(=O)c1c(O)c(=O)c(-c3nnc(Cc4ccc(F)cc4)s3)cn1N2C` (stereo not shown) [Compound 145], the IC50 under setting [2] came out at 102 nM.
`CCN1C(=O)c2c(O)c(=O)c(-c3nnc(Cc4ccc(F)cc4F)s3)cn2N(C)C12CCC(C(=O)OC)C2` (stereo not shown) [Compound 19]: the IC50 by setting is: under setting [5], 22.8 nM; under setting [6], 314 nM.
For `COC1CCC2(CC1)Cn1cc(-c3nnc(Cc4ccc(F)cc4F)s3)c(=O)c(O)c1C(=O)N2C` (stereo not shown) [Compound 212], the IC50 turned out to be 3.49 nM under setting [4] and 90.7 nM under setting [3].
For `CCN1C(=O)c2c(O)c(=O)c(-c3nnc(Cc4ccc(F)cc4F)s3)cn2N(C)C12CCC(C(=O)N(C)CC(F)(F)F)CC2` (stereo not shown) [Compound 102], the IC50 stood at 12.2 nM under setting [4] and 170 nM under setting [6].
For `CCO[C@H]1CC[C@@]2(CC1)N(CC)C(=O)c1c(O)c(=O)c(-c3nnc(Cc4ccc(F)cc4F)s3)cn1N2C` [Compound 9] the same measures were 5.06 nM and 141 nM.
Turning to `CCCOC1CCC2(CC1)N(CC)C(=O)c1c(O)c(=O)c(-c3nnc(Cc4ccc(F)cc4F)s3)cn1N2C` (stereo not shown) [Compound 60], the IC50 was 226 nM under setting [6] and 10.8 nM under setting [1].
For `CN1C(=O)c2c(O)c(=O)c(-c3nnc(Cc4ccc(F)cc4F)s3)cn2N(C)C12CCC(C(=O)N1CC(F)(F)C1)CC2` (stereo not shown) [Compound 120], the IC50 is, setting by setting: under setting [1], 5.51 nM; under setting [2], 11.7 nM; under setting [3], 516 nM.
Consider `CCN1C(=O)c2c(O)c(=O)c(-c3nnc(Cc4ccc(F)cc4)s3)cn2N(C)C12CC(O)C2` (stereo not shown) [Compound 11], for which the IC50 runs as follows: under setting [5], 231 nM; under setting [6], 4200 nM.
Take `CN1C(=O)c2c(O)c(=O)c(-c3nnc(Cc4ccc(F)cc4F)s3)cn2N(C)C12CCC(C(=O)NCC1(O)CC1)CC2` (stereo not shown) [Compound 123]: the IC50 runs as follows: under setting [1], 47.1 nM; under setting [2], 103 nM.
Regarding `CCCOC1CCC2(CC1)N(CC)C(=O)c1c(O)c(=O)c(C(=O)NCc3ccc(F)cc3F)cn1N2C` (stereo not shown) [Compound 194], the IC50 is, setting by setting: under setting [1], 25 nM; under setting [3], 400 nM.
As to `CCOP(=O)(OCC)C1CCCC2(C1)N(CC)C(=O)c1c(O)c(=O)c(-c3nnc(Cc4ccc(F)cc4F)s3)cn1N2C` (stereo not shown) [Compound 25], under setting [5], the IC50 worked out at 40.5 nM.
With `CCN1C(=O)c2c(O)c(=O)c(-c3nnc(Cc4ccc(F)cc4F)s3)cn2N(C)C1C1(C)CC1` (racemic) [Compound 17], the IC50 is 138 nM under setting [5] and 4070 nM under setting [6].
On the same counts, the results for `CCN1C(=O)c2c(O)c(=O)c(-c3nnc(Cc4ccc(F)cc4F)s3)cn2N(C)C12CCC(c1n[nH]c(=O)o1)CC2` (stereo not shown) [Compound 34] are 23.6 nM and 180 nM.
For `COCCN1C(=O)c2c(O)c(=O)c(-c3cn(Cc4ccc(F)cc4F)nn3)cn2CC12CCC2` [Compound 214], the IC50 reads like this: under setting [4], 24.4 nM; under setting [6], 205 nM.
`CCN1C(=O)c2c(O)c(=O)c(-c3nnc(Cc4ccc(F)cc4F)s3)cn2N(C)C1C(C)(C)C` (racemic) [Compound 16]: the IC50 turned out to be 57 nM under setting [5] and 1030 nM under setting [6].
Turning to `CCN1C(=O)c2c(O)c(=O)c(-c3nnc(Cc4ccc(F)cc4)s3)cn2N(C)C12CCC(P(=O)(O)O)C2` (stereo not shown) [Compound 87], the IC50 under setting [4] worked out at 626 nM and the IC50 under setting [6] came out at 2890 nM.
`CN1C(=O)c2c(O)c(=O)c(-c3nnc(Cc4ccc(F)cc4F)s3)cn2N(C)C12CCC(C(N)=O)CC2` (stereo not shown) [Compound 106]: the IC50 reads like this: under setting [1], 186 nM; under setting [2], 812 nM.
In the case of `CCc1noc(C2CCC3(CC2)N(CC)C(=O)c2c(O)c(=O)c(-c4nnc(Cc5ccc(F)cc5F)s4)cn2N3C)n1` (stereo not shown) [Compound 57], the IC50 reads like this: under setting [4], 18.1 nM; under setting [6], 145 nM.
Take `CN(C)CCNC(=O)C1CCC2(CC1)N(C)C(=O)c1c(O)c(=O)c(-c3nnc(Cc4ccc(F)cc4F)s3)cn1N2C` (stereo not shown) [Compound 125]: the IC50 is, setting by setting: under setting [1], 374 nM; under setting [2], 543 nM.
Regarding `CN1C2C(O)CCCN2C(=O)c2c(O)c(=O)c(-c3nnc(Cc4ccc(F)cc4F)s3)cn21` (stereo not shown) [Compound 165], the IC50 amounted to 5.12 nM under setting [1] and 54 nM under setting [3].
Take `C[C@H]1n2cc(C(=O)NCc3ccc(F)cc3F)c(=O)c(O)c2C(=O)N(C)C12CC2` [Compound 175]: the IC50 is 1.54 nM under setting [4] and 37.1 nM under setting [6].
For `COCCN1C(=O)c2c(O)c(=O)c(C(=O)NCc3ccc(F)cc3F)cn2CC12CCC2` [Compound 177] the same measures were 5.03 nM and 4790 nM.
On to `CCCOC1CCC2(CC1)N(CC)C(=O)c1c(O)c(=O)c(-c3nnc(Cc4ccc(F)cc4F)s3)cn1N2C` (stereo not shown) [Compound 61], for which the IC50 runs as follows: under setting [1], 23.8 nM; under setting [3], 221 nM.
As for `CN1C(=O)c2c(O)c(=O)c(-c3nnc(Cc4ccc(F)cc4F)s3)cn2N(C)C12CCC(C(=O)N1CCCC1)CC2` (stereo not shown) [Compound 115], the IC50 under setting [1] is 16.4 nM and the IC50 under setting [2] was 39.5 nM.
